Key:
Glucocorticoid receptor = target: T1, Glucocorticoid receptor (Homo sapiens, UniProt P04150); assay: Displacement of [3H]dexomethasone from GR
T1 sequence (P04150 whole entry): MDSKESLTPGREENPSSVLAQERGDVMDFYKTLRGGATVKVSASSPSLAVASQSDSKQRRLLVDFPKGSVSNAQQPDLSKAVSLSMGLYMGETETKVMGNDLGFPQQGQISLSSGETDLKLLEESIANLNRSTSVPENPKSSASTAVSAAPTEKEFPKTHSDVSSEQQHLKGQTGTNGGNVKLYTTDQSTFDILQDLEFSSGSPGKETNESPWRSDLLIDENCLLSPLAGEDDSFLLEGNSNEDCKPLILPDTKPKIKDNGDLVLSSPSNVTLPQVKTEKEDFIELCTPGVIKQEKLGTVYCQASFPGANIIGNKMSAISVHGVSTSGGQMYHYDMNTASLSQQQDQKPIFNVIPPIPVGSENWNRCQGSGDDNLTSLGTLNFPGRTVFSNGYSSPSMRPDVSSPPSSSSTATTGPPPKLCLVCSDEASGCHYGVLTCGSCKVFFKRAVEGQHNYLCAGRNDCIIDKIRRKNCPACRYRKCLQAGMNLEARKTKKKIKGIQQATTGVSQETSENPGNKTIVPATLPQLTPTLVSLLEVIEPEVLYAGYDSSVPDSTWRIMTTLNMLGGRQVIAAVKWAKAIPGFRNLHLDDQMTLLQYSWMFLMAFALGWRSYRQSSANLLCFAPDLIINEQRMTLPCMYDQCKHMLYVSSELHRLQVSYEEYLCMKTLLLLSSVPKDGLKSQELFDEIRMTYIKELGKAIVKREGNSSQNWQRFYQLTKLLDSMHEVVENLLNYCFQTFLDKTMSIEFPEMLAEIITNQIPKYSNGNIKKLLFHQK

[1] = target: T2, Mineralocorticoid receptor (Homo sapiens, UniProt P08235); assay: biochemical
T2 sequence (P08235 whole entry): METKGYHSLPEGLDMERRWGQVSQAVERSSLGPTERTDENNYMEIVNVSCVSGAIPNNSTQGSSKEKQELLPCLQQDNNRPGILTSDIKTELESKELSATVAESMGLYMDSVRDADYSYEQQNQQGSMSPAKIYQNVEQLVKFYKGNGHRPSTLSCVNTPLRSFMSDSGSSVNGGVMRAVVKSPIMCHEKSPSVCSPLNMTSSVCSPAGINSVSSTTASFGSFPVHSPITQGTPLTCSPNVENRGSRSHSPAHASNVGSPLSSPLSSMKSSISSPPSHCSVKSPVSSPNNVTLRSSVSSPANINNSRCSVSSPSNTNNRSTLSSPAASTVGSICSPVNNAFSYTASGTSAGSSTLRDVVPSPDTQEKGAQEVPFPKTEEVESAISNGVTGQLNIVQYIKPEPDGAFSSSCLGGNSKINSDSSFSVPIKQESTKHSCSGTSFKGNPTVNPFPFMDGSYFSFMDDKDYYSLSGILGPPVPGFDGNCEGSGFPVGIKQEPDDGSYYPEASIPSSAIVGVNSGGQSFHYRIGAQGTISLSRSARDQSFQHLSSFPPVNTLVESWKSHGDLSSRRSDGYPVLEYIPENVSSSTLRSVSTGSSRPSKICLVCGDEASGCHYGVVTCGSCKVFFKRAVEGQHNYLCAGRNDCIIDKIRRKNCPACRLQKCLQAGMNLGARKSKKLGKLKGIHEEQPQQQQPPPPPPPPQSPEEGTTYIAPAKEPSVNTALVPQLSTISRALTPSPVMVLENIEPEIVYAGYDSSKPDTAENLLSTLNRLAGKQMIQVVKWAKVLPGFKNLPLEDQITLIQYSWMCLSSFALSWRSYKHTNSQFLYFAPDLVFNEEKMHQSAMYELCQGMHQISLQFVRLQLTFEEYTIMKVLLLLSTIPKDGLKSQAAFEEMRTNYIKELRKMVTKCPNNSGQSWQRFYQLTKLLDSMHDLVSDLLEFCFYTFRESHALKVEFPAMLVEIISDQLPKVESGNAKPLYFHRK
Description: Displacement of [3H]aldosterone from cytosolic human MR expressed in HEK293 cells after 16 hrs by scintillation counting

Cc1cc(F)ccc1-n1nc(C(F)(F)F)cc1-c1ccc2c(c1)NC(=O)CO2
IC50 (Glucocorticoid receptor): 1800 nM
IC50 [1]: 41 nM

Reference: ChEMBL document CHEMBL1926625, “Identification of benzoxazin-3-one derivatives as novel, potent, and selective nonsteroidal mineralocorticoid receptor antagonists” (J Med Chem, 2011)
